Measured values published in US20040235939A1, “Synthesis of peloruside a and analogs thereof for use as antitumor agents” (priority 2003, published 2004).

How the values were obtained:
HCT-15 = test: SRB cytotoxicity assay, HCT-15; assay type: cell-based; conditions: Homo sapiens
Description: (§1) Cells were treated on Days 1, 3, 5, and 7 with 5 μL of media, vehicle, or drug. Peloruside A was resuspended in 0.1% DMSO and added to wells to a final concentration of 0.01, 0.1, 1, 10 or 100 nM. Taxol® (Sigma-Aldrich) was resuspended in 0.1% ethanol and added to cells to a final concentration of 0.1, 1, 10, 100, or 1000 nM.
(§2) The amount of surviving cells was measured using the sulforhodamine B (SRB) assay as previously described (Skehan et al., New colorimetric cytotoxicity assay for anticancer-drug screening. J. Natl. Cancer Inst., 1990. 82(13): p. 1107-12). Cells were fixed on Days 5, 7, and 9 (representing 4, 6, and 8 days of exposure to drug or control, respectively) with 50% (w/v) trichloroacetic acid for 1 hour at 4° C., rinsed thoroughly with water, and dried overnight. The dried cells were stained with 4% sulforhodamine B in 1% acetic acid, rinsed thoroughly and dried overnight. The bound dye was resuspended in 10 mM Tris and the absorbance was read at 492 nm. Percent growth inhibition (GI) was calculated as follows: %GI=(1−(absorbance sample/absorbance vehicle))×100. The absorbance value for each drug concentration and control represents the average of 6 replicates. The %GI was plotted against the log[drug] to generate the growth curves. The concentration of drug required to inhibit growth by 50% (GI50) was calculated for each time point.

HCT-116 = test: SRB cytotoxicity assay, HCT-116; assay type: cell-based; conditions: Homo sapiens
Description: as §1, §2

Capan-1 = test: SRB cytotoxicity assay, Capan-1; assay type: cell-based; conditions: Homo sapiens
Description: as §1, §2

Mia PaCa-2 = test: SRB cytotoxicity assay, Mia PaCa-2; assay type: cell-based; conditions: Homo sapiens
Description: as §1, §2

SK-MEL-5 = test: SRB cytotoxicity assay, SK-MEL-5; assay type: cell-based; conditions: Homo sapiens
Description: as §1, §2

SK-OV-3 = test: SRB cytotoxicity assay, SK-OV-3; assay type: cell-based; conditions: Homo sapiens
Description: as §1, §2

CAKI-1 = test: SRB cytotoxicity assay, CAKI-1; assay type: cell-based; conditions: Homo sapiens
Description: as §1, §2

A498 = test: SRB cytotoxicity assay, A498; assay type: cell-based; conditions: Homo sapiens
Description: as §1, §2

PC-3 = test: SRB cytotoxicity assay, PC-3; assay type: cell-based; conditions: Homo sapiens
Description: as §1, §2

DU-145 = test: SRB cytotoxicity assay, DU-145; assay type: cell-based; conditions: Homo sapiens
Description: as §1, §2

BT-549 = test: SRB cytotoxicity assay, BT-549; assay type: cell-based; conditions: Homo sapiens
Description: as §1, §2

MDA-MB-231 = test: SRB cytotoxicity assay, MDA-MB-231; assay type: cell-based; conditions: Homo sapiens
Description: as §1, §2

NCI-H460 = test: SRB cytotoxicity assay, NCI-H460; assay type: cell-based; conditions: Homo sapiens
Description: as §1, §2

NCI-H23 = test: SRB cytotoxicity assay, NCI-H23; assay type: cell-based; conditions: Homo sapiens
Description: as §1, §2

NCI-H1395 = test: SRB cytotoxicity assay, NCI-H1395; assay type: cell-based, human; conditions: Homo sapiens
Description: as §1, §2

NCI-H2887 = test: SRB cytotoxicity assay, NCI-H2887; assay type: cell-based, human
Description: as §1, §2

Hep-G2 = test: SRB cytotoxicity assay, Hep-G2; assay type: cell-based; conditions: Homo sapiens
Description: as §1, §2

SK-HEP-1 = test: SRB cytotoxicity assay, SK-HEP-1; assay type: cell-based; conditions: Homo sapiens
Description: as §1, §2

[1] = test system: BSC-1 (Monkey Kidney epithelial) cells; test: Immunofluorescent staining of tubulin in BSC-1 cells; assay type: cell-based; conditions: 200 nM of Taxol® or 50 nM of Peloruside A
ptx10 cells = test: Cell Titer-Glo cell viability, Taxol-resistant ptx10 cells; conditions: Homo sapiens, PTX10, 48 h, read-out: cell viability
Description: (§3) These cell lines have specific amino acid mutations in tubulin that prevent Taxol®-binding. […] Synthetic (+)-Peloruside A was used for the present example.
(§4) 1A9, ptx10 and ptx22 cells were plated in 96-well plates to approximately 50% confluency. On the next day, Taxol® or Peloruside A was added to each well and incubated for 48 hours. A final concentration of 1, 2, 3, 4, 5, 8, 10, 20, 30, 50, 100, 300, 500, or 1000 nM of Taxol® was used. A final concentration of 10, 20, 30, 40, 50 or 70 nM of Peloruside A was used. Cell viability was measured using the Cell Titer-Glo Luminescent Cell Viability Assay (Promega). FIGS. 80-82 show bar graphs of cell viability at various concentrations of Peloruside A and Taxol®.

ptx22 cells = test: Cell Titer-Glo cell viability, Taxol-resistant ptx22 cells; conditions: Homo sapiens, 48 h, read-out: cell viability
Description: as §3, §4

With `CC[C@H](/C=C(/C)C1C[C@@H](OC)CC(O)C(C)(C)C2(O)OC(C[C@@H](OC)C2O)C[C@@H](OC)[C@H](O)C(=O)O1)CO` (single isomer, unassigned; (+)) [Peloruside A, (+)-Peloruside A] as the compound, how does the GI50 (HCT-15; HCT-15, 96 h) read?
Its GI50 is 14.3 nM.

What about the GI50 (HCT-15; HCT-15, 144 h) of the same compound?
Its GI50 is 9.23 nM.

What about the GI50 (HCT-15; HCT-15, 192 h) of the same compound?
The GI50 was 11.7 nM.

And the GI50 (HCT-116; HCT-116, 96 h)?
The GI50 was 3.64 nM.

And the GI50 (HCT-116; HCT-116, 144 h)?
Its GI50 is 5.81 nM.

What about the GI50 (HCT-116; HCT-116, 192 h) of the same compound?
Its GI50 is 1.79 nM.

And the GI50 (Capan-1; CAPAN-1, 96 h)?
The GI50 was 29.8 nM.

What about the GI50 (Capan-1; CAPAN-1, 144 h) of the same compound?
The GI50 was 6.8 nM.

What about the GI50 (Capan-1; CAPAN-1, 192 h) of the same compound?
The GI50 was 5.21 nM.

And the GI50 (Mia PaCa-2; MIA PaCa-2, 96 h)?
Its GI50 is 9.65 nM.

And the GI50 (Mia PaCa-2; MIA PaCa-2, 144 h)?
Its GI50 is 1.76 nM.

And the GI50 (Mia PaCa-2; MIA PaCa-2, 192 h)?
Its GI50 is 2.44 nM.

And the GI50 (SK-MEL-5; SK-MEL-5, 96 h)?
Its GI50 is 9.42 nM.

What about the GI50 (SK-MEL-5; SK-MEL-5, 144 h) of the same compound?
The GI50 was 1.76 nM.

And the GI50 (SK-MEL-5; SK-MEL-5, 192 h)?
The GI50 was 2.44 nM.

And the GI50 (SK-OV-3; SK-OV-3, 96 h)?
The GI50 was 8.81 nM.

And the GI50 (SK-OV-3; SK-OV-3, 144 h)?
Its GI50 is 8.51 nM.

What about the GI50 (SK-OV-3; SK-OV-3, 192 h) of the same compound?
Its GI50 is 5.77 nM.

What about the GI50 (CAKI-1; CAKI-1, 96 h) of the same compound?
The GI50 was 12.5 nM.

What about the GI50 (CAKI-1; CAKI-1, 144 h) of the same compound?
The GI50 was 3.97 nM.

And the GI50 (CAKI-1; CAKI-1, 192 h)?
The GI50 was 3 nM.

What about the GI50 (A498; A498, 96 h) of the same compound?
Its GI50 is 7.3 nM.

And the GI50 (A498; A498, 144 h)?
Its GI50 is 1.9 nM.

What about the GI50 (A498; A498, 192 h) of the same compound?
Its GI50 is 2.75 nM.

What about the GI50 (PC-3; PC-3, 96 h) of the same compound?
Its GI50 is 11.6 nM.

And the GI50 (PC-3; PC-3, 144 h)?
Its GI50 is 6.5 nM.

And the GI50 (PC-3; PC-3, 192 h)?
Its GI50 is 2.46 nM.

And the GI50 (DU-145; DU-145, 96 h)?
Its GI50 is 9.2 nM.

And the GI50 (DU-145; DU-145, 144 h)?
Its GI50 is 3.25 nM.

And the GI50 (DU-145; DU-145, 192 h)?
Its GI50 is 2.94 nM.

And the GI50 (BT-549; BT-549, 96 h)?
The GI50 was 38.8 nM.

And the GI50 (BT-549; BT-549, 144 h)?
The GI50 was 4.28 nM.

What about the GI50 (BT-549; BT-549, 192 h) of the same compound?
Its GI50 is 5.73 nM.

What about the GI50 (MDA-MB-231; MDA-MB-231, 96 h) of the same compound?
The GI50 was 4.02 nM.

And the GI50 (MDA-MB-231; MDA-MB-231, 144 h)?
Its GI50 is 3.4 nM.

What about the GI50 (MDA-MB-231; MDA-MB-231, 192 h) of the same compound?
Its GI50 is 1.53 nM.

What about the GI50 (NCI-H460; NCI-H460, 96 h) of the same compound?
The GI50 was 8.27 nM.

What about the GI50 (NCI-H460; NCI-H460, 144 h) of the same compound?
The GI50 was 5.38 nM.

What about the GI50 (NCI-H460; NCI-H460, 192 h) of the same compound?
Its GI50 is 4.77 nM.

And the GI50 (NCI-H23; NCI-H23, 144 h)?
Its GI50 is 7.11 nM.

What about the GI50 (NCI-H23; NCI-H23, 192 h) of the same compound?
Its GI50 is 4.78 nM.

What about the GI50 (NCI-H1395; NCI-H1395, 96 h) of the same compound?
Its GI50 is 1010 nM.

What about the GI50 (NCI-H1395; NCI-H1395, 144 h) of the same compound?
Its GI50 is 84.1 nM.

What about the GI50 (NCI-H1395; NCI-H1395, 192 h) of the same compound?
Its GI50 is 15.2 nM.

And the GI50 (NCI-H2887; Homo sapiens, NCI-H2887, 144 h)?
Its GI50 is 674 nM.

What about the GI50 (NCI-H2887; Homo sapiens, NCI-H2887, 192 h) of the same compound?
The GI50 was 9.15 nM.

And the GI50 (NCI-H2887; NCl-H2887, Lung, 4 Days)?
Its GI50 is 4 Days: Resistant.

What about the GI50 (Hep-G2; HepG2, 96 h) of the same compound?
The GI50 was 18 nM.

And the GI50 (Hep-G2; HepG2, 144 h)?
The GI50 was 1.58 nM.

What about the GI50 (Hep-G2; HepG2, 192 h) of the same compound?
The GI50 was 0.98 nM.

What about the GI50 (SK-HEP-1; SK-HEP1, 96 h) of the same compound?
Its GI50 is 39.3 nM.

And the GI50 (SK-HEP-1; SK-HEP1, 144 h)?
Its GI50 is 11.2 nM.

And the GI50 (SK-HEP-1; SK-HEP1, 192 h)?
Its GI50 is 1.45 nM.

What about the “formation of a bipolar spindle” value [1] of the same compound?
The value was “inhibits the formation of a bipolar spindle”.

And the viability at 0.03 µM (ptx10 cells)?
Its viability at 0.03 µM is about 50%.

What about the viability at 0.03 µM (ptx22 cells) of the same compound?
The viability at 0.03 µM was about 50%.
